Experiment [1] concerns KK-Ay/Ta Jcl mice (animal models for hypertriglyceridemia and hyper-free fatty acidemia). In words: Serum triglyceride concentration in KK-Ay/Ta Jcl mice fed compound-supplemented CE-2 feed (Triglyceride G-Test Wako). The format is in vivo. The settings on record: for Triglyceride (serum concentration): KK-Ay/Ta Jcl male mice, 1% by weight in CE-2 feed ad libitum, serum after 18 h fast, 10th-11th day, mean ± standard error (n=5), Group 1 (CE-2 only) 282.4 ± 30.3; for Action for improving hypertriglyceridemia (conclusion) / Serum triglyceride concentration as compared with Group 1 (in words): KK-Ay/Ta Jcl mice, 1% by weight in feed; for Serum triglyceride concentration as compared with Group 1 (in words): t-test, p < 0.01 where significant. From the text:
(§1) KK-Ay/Ta Jcl mice (CLEA JAPAN; males; six weeks age) (25 mice) which are animal models for appearing hypertriglyceridemia and hyper-free fatty acidemia were divided into five groups each comprising five mice and named group 1 to group 5.
(§2) The mice of group 1 to group 5 were made free to take feed and water. A commercially available feed CE-2 (manufactured by CLEA JAPAN) was ingested to the mice of group 1. CE-2 to which 1% by weight of trans-4-hydroxy-L-proline (manufactured by Kyowa Hakko Kogyo; hereinafter, abbreviated as hydroxyproline) was added was ingested to the mice of group 2. CE-2 to which 1% by weight of trans-N-acetyl-4-hydroxy-L-proline (manufactured by Kyowa Hakko Kogyo; hereinafter, abbreviated as N-acetylhydroxyproline) was added was ingested to the mice of group 3. CE-2 to which 1% by weight of trans-4-hydroxy-L-proline ethyl ester (manufactured by Sanyo Kagaku Kenkyusho; hereinafter, abbreviated as hydroxyproline ethyl ester) was added was ingested to the mice of group 4. CE-2 to which 1% by weight of trans-N,O-diacetyl-4-hydroxy-L-proline oleyl ester (manufactured by Nissei Kagaku; hereinafter, abbreviated as diacetylhydroxyproline oleyl ester) was added was ingested to the mice of group 5.
(§3) The mice were fasted for 18 hours during the 10th day to the 11th day after the start of the test and whole blood was collected from descending vena carva to prepare serum. Concentration of triglyceride in the serum was measured by a Triglyceride G-Test Wako (manufactured by Wako Pure Chemical) and concentration of free fatty acids therein was measured by an NEFA C-Test Wak (manufactured by Wako Pure Chemical). The value was shown by mean value ± standard error (n=5) and statistic ratio of risk (p value) was determined by a t-test. With regard to the ingested amounts during the test period, there was no significant difference among the groups 1 to 5.

Experiment [2] has the same test system. Description: Serum free fatty acid concentration in KK-Ay/Ta Jcl mice fed compound-supplemented CE-2 feed (NEFA C-Test). The format is in vivo. The settings on record: for Free Fatty Acid (serum concentration): KK-Ay/Ta Jcl male mice, 1% by weight in CE-2 feed ad libitum, serum after 18 h fast, 10th-11th day, mean ± standard error (n=5), Group 1 (CE-2 only) 1.12 ± 0.05; for Action for improving hyper-free fatty acidemia (conclusion) / Free fatty acid concentration in serum as compared with Group 1 (in words): KK-Ay/Ta Jcl mice, 1% by weight in feed; for Free fatty acid concentration in serum as compared with Group 1 (in words): t-test, p < 0.005 where significant.
From the text: as §1, §2, §3

For the compound `O=C(O)[C@@H]1C[C@@H](O)CN1` [hydroxyproline, trans-4-hydroxy-L-proline], in experiment [1], the “Triglyceride (serum concentration)” value was determined as 224.3 ± 23.1 mg/dL, the “Action for improving hypertriglyceridemia (conclusion)” value is given as “action for improving hypertriglyceridemia” and the “Serum triglyceride concentration as compared with Group 1 (in words)” value is listed as “tended to show low values”. Also, in experiment [2], the “Free Fatty Acid (serum concentration)” value is recorded as 0.84 ± 0.05 mEq/l, the “Action for improving hyper-free fatty acidemia (conclusion)” value is given as “action for improving hyper-free fatty acidemia” and the “Free fatty acid concentration in serum as compared with Group 1 (in words)” value is “significantly low”.

For the compound `CCOC(=O)[C@@H]1C[C@@H](O)CN1` [hydroxyproline ethyl ester, trans-4-hydroxy-L-proline ethyl ester], in experiment [1], the “Triglyceride (serum concentration)” value was 168.7 ± 13.4 mg/dL, the “Action for improving hypertriglyceridemia (conclusion)” value is “action for improving hypertriglyceridemia” and the “Serum triglyceride concentration as compared with Group 1 (in words)” value is “significantly low”. In experiment [2], the “Free Fatty Acid (serum concentration)” value worked out at 0.68 ± 0.02 mEq/l, the “Action for improving hyper-free fatty acidemia (conclusion)” value was “action for improving hyper-free fatty acidemia” and the “Free fatty acid concentration in serum as compared with Group 1 (in words)” value is on record as “significantly low”.

As for `CCCCCCCC/C=C\CCCCCCCCOC(=O)[C@@H]1C[C@@H](OC(C)=O)CN1C(C)=O` (relative stereo) [diacetylhydroxyproline oleyl ester, trans-N,O-diacetyl-4-hydroxy-L-proline oleyl ester], in experiment [1], the “Triglyceride (serum concentration)” value is 217.6 ± 18.3 mg/dL, the “Action for improving hypertriglyceridemia (conclusion)” value is “action for improving hypertriglyceridemia” and the “Serum triglyceride concentration as compared with Group 1 (in words)” value is listed as “tended to show low values”. Besides, in experiment [2], the “Free Fatty Acid (serum concentration)” value is listed as 1.00 ± 0.07 mEq/l, the “Action for improving hyper-free fatty acidemia (conclusion)” value is listed as “action for improving hyper-free fatty acidemia” and the “Free fatty acid concentration in serum as compared with Group 1 (in words)” value is “tended to show low values”.

As for `CC(=O)N1C[C@H](O)C[C@H]1C(=O)O` [N-acetylhydroxyproline, trans-N-acetyl-4-hydroxy-L-proline], in experiment [1], the “Triglyceride (serum concentration)” value was found to be 156.4 ± 23.3 mg/dL, the “Action for improving hypertriglyceridemia (conclusion)” value is recorded as “action for improving hypertriglyceridemia” and the “Serum triglyceride concentration as compared with Group 1 (in words)” value is recorded as “significantly low”. Also, in experiment [2], the “Free Fatty Acid (serum concentration)” value is recorded as 0.77 ± 0.06 mEq/l, the “Action for improving hyper-free fatty acidemia (conclusion)” value was “action for improving hyper-free fatty acidemia” and the “Free fatty acid concentration in serum as compared with Group 1 (in words)” value is “significantly low”.
